The assay concerns BDF1 mice, B16 melanoma ip, median survival T/C. As to the kind of experiment: NCI In Vivo Anticancer Drug Screen. Data for tumor model B16 Melanoma (intraperitoneal) in B6D2F1 (BDF1) mice. The following applies: endpoint: median survival time, higher = longer survival. In a few lines:
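Transplantable tumor model; survival or tumor size measured; reported as T/C, treated over vehicle control.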

[1] abbreviates: dose: 50.0 mg/kg/injection, schedule: Q01DX009 (ip), vehicle: saline with Tween-80.
Setting [2] is: dose: 100.0 mg/kg/injection, schedule: Q04DX003 (ip), vehicle: saline with Tween-80.
The mark [3] stands for this setting: dose: 200.0 mg/kg/injection, schedule: Q04DX003 (ip), vehicle: saline with Tween-80.
[4] abbreviates: dose: 400.0 mg/kg/injection, schedule: Q04DX003 (ip), vehicle: saline with Tween-80.
Setting [5] is: dose: 12.5 mg/kg/injection, schedule: Q01DX009 (ip), vehicle: saline.
Where [6] appears, read: dose: 25.0 mg/kg/injection, schedule: Q01DX009 (ip), vehicle: saline.
Setting [7] is: dose: 100.0 mg/kg/injection, schedule: Q01DX009 (ip), vehicle: saline.
[8] abbreviates: dose: 100.0 mg/kg/injection, schedule: Q01DX009 (ip), vehicle: Klucel (hydroxypropylcellulose) (HPC).
The mark [9] stands for this setting: dose: 100.0 mg/kg/injection, schedule: Q04DX003 (ip), vehicle: Klucel (hydroxypropylcellulose) (HPC).
Setting [10] is: dose: 200.0 mg/kg/injection, schedule: Q01DX009 (ip), vehicle: Klucel (hydroxypropylcellulose) (HPC).
[11] abbreviates: dose: 50.0 mg/kg/injection, schedule: Q01DX009 (ip), vehicle: Klucel (hydroxypropylcellulose) (HPC).
[12] abbreviates: dose: 12.5 mg/kg/injection, schedule: Q01DX009 (ip), vehicle: Klucel (hydroxypropylcellulose) (HPC).
[13] abbreviates: dose: 25.0 mg/kg/injection, schedule: Q01DX009 (ip), vehicle: Klucel (hydroxypropylcellulose) (HPC).

Values joined by “and” are separate entries in the source; they are usually repeats but may differ in a detail not shown here. Equal entries are not always repeated. Inconclusive results and toxic doses are left out.

In the case of `COB1OB(OC)OB(OC)O1`, the T/C by setting is: under setting [1], 103 % of control; (dose: 100.0 mg/kg/injection, schedule: Q01DX009 (ip), vehicle: saline with Tween-80) 104 % of control; under setting [2], 105 % of control; (dose: 200.0 mg/kg/injection, schedule: Q01DX009 (ip), vehicle: saline with Tween-80) 102 % of control; under setting [3], 112 % of control; (dose: 400.0 mg/kg/injection, schedule: Q01DX009 (ip), vehicle: saline with Tween-80) 98 % of control. Moreover, the T/C under setting [4] is 110 % of control.
As for `Oc1ccccc1/C=N/NC(=S)NC1CC2C=CC1C2` (stereo unspecified), the T/C (dose: 50.0 mg/kg/injection, schedule: Q01DX009 (ip), vehicle: olive oil, sesame oil, peanut oil) was 88 % of control.
For the compound `C=C1C/C(=C/C)C(=O)O[C@@H]2CCN3CC=C(COC(=O)[C@]1(C)O)[C@H]23`, the T/C reads like this: under setting [5], 109 % of control; under setting [6], 116 % of control; (dose: 50.0 mg/kg/injection, schedule: Q01DX009 (ip), vehicle: saline) 116 % of control; under setting [7], 107 % of control.
On to `O=C1/C(=C/c2ccc([N+](=O)[O-])cc2)CCc2ccccc21`, for which the T/C (dose: 12.5 mg/kg/injection, schedule: Q01DX009 (ip), vehicle: water) is 94 % of control; the T/C (dose: 25.0 mg/kg/injection, schedule: Q01DX009 (ip), vehicle: water) was 97 % of control; the T/C (dose: 50.0 mg/kg/injection, schedule: Q01DX009 (ip), vehicle: water) was 92 % of control; the T/C (dose: 100.0 mg/kg/injection, schedule: Q01DX009 (ip), vehicle: water) was 92 % of control.
In the case of `C[Si](C)(O[Si](C)(C)c1ccccc1)c1ccccc1`, the T/C under setting [6] is 123 % of control and the T/C under setting [7] is 114 % of control.
On to `CCOC(=O)NC(CC)CO` (stereo unspecified), for which the T/C under setting [8] was 100 % of control; the T/C under setting [9] was 90 % of control; the T/C under setting [10] is 97 % of control; the T/C (dose: 200.0 mg/kg/injection, schedule: Q04DX003 (ip), vehicle: Klucel (hydroxypropylcellulose) (HPC)) was 100 % of control; the T/C (dose: 400.0 mg/kg/injection, schedule: Q01DX009 (ip), vehicle: Klucel (hydroxypropylcellulose) (HPC)) is 102 % of control; the T/C (dose: 400.0 mg/kg/injection, schedule: Q04DX003 (ip), vehicle: Klucel (hydroxypropylcellulose) (HPC)) was 95 % of control.
As to `CC1CN1C(=O)NCCCCCCNC(=O)N1CC1C` (stereo unspecified), the T/C is, setting by setting: (dose: 1.25 mg/kg/injection, schedule: Q01DX009 (ip), vehicle: Klucel (hydroxypropylcellulose) (HPC)) 151 % of control; (dose: 1.25 mg/kg/injection, schedule: Q01DX009 (ip), vehicle: saline) 152 % of control; (dose: 2.5 mg/kg/injection, schedule: Q01DX009 (ip), vehicle: saline) 180 % of control; (dose: 5.0 mg/kg/injection, schedule: Q01DX009 (ip), vehicle: Klucel (hydroxypropylcellulose) (HPC)) 158 % of control; (dose: 5.0 mg/kg/injection, schedule: Q01DX009 (ip), vehicle: saline) 202 % of control.
Take `Nc1nc2[nH]c(=O)cnc2c(=O)[nH]1`: the T/C is, setting by setting: under setting [11], 88 % of control; under setting [8], 86 % of control; under setting [10], 99 % of control.
Regarding `OC1CC2CC1C=C2c1ccccc1` (stereo unspecified), the T/C is 102 % of control under setting [2], 105 % of control under setting [3] and 94 % of control under setting [4].
Turning to `O=C/C(Cl)=C(/Cl)C(=O)O`, the T/C was 99 % of control (dose: 2.5 mg/kg/injection, schedule: Q01DX009 (ip), vehicle: saline with Tween-80); 87 % of control (dose: 5.0 mg/kg/injection, schedule: Q01DX009 (ip), vehicle: saline with Tween-80); 102 % of control (dose: 10.0 mg/kg/injection, schedule: Q01DX009 (ip), vehicle: saline with Tween-80); 106 % of control (dose: 20.0 mg/kg/injection, schedule: Q01DX009 (ip), vehicle: saline with Tween-80).
With `CO[C@@]12[C@@H]3N[C@@H]3CN1C1=C(C(=O)C(NCc3ccco3)=C(C)C1=O)[C@@H]2COC(N)=O`, the T/C reads like this: (dose: 0.13 mg/kg/injection, schedule: Q01DX001 (ip), vehicle: distilled water + Tween-80) 96 % of control; (dose: 0.25 mg/kg/injection, schedule: Q01DX001 (ip), vehicle: distilled water + Tween-80) 101 % of control; (dose: 0.5 mg/kg/injection, schedule: Q01DX001 (ip), vehicle: distilled water + Tween-80) 111 % of control; (dose: 1.0 mg/kg/injection, schedule: Q01DX001 (ip), vehicle: distilled water + Tween-80) 123 % of control; (dose: 6.0 mg/kg/injection, schedule: Q04DX003 (ip), vehicle: distilled water + Tween-80) 205 % of control; (dose: 12.0 mg/kg/injection, schedule: Q04DX003 (ip), vehicle: distilled water + Tween-80) 305 % of control. The T/C (dose: 24.0 mg/kg/injection, schedule: Q04DX003 (ip), vehicle: distilled water + Tween-80) was 315 % of control.
Regarding `COc1ccccc1NC(=O)Nc1c(C)cccc1C`, the T/C (dose: 100.0 mg/kg/injection, schedule: Q01DX009 (ip), vehicle: gum acacia) is 101 % of control; the T/C (dose: 200.0 mg/kg/injection, schedule: Q01DX009 (ip), vehicle: gum acacia) was 102 % of control; the T/C (dose: 400.0 mg/kg/injection, schedule: Q01DX009 (ip), vehicle: gum acacia) is 90 % of control.
In the case of `Cc1ccc(NC(=O)COc2ccc(Cl)cc2)cc1Cl`, the T/C (dose: 3.13 mg/kg/injection, schedule: Q01DX009 (ip), vehicle: saline with Tween-80) was 101 % of control; the T/C (dose: 6.25 mg/kg/injection, schedule: Q01DX009 (ip), vehicle: saline with Tween-80) was 106 % of control; the T/C (dose: 12.5 mg/kg/injection, schedule: Q01DX009 (ip), vehicle: saline with Tween-80) was 93 % of control and 101 % of control; the T/C (dose: 25.0 mg/kg/injection, schedule: Q01DX009 (ip), vehicle: saline with Tween-80) is 87 % of control; the T/C under setting [1] was 96 % of control.
In the case of `O=C1C(=O)c2cccc3cccc1c23`, the T/C reads like this: under setting [5], 88 % of control; under setting [6], 94 % of control.
As to `CCCCN(CCCC)CC(O)c1ccnc2cc3c(cc12)OCO3` (stereo unspecified), the T/C reads like this: (dose: 25.0 mg/kg/injection, schedule: Q04DX003 (ip), vehicle: Klucel (hydroxypropylcellulose) (HPC)) 94 % of control; (dose: 50.0 mg/kg/injection, schedule: Q04DX003 (ip), vehicle: Klucel (hydroxypropylcellulose) (HPC)) 89 % of control; under setting [9], 89 % of control.
On to `O=C(Nc1ccccc1)Nc1nccs1`, for which the T/C under setting [12] is 91 % of control; the T/C under setting [13] was 93 % of control and 113 % of control; the T/C under setting [11] is 98 % of control and 102 % of control; the T/C under setting [8] is 93 % of control and 99 % of control; the T/C under setting [10] was 94 % of control and 100 % of control.
`COc1ccc(-c2c(N)nc(=S)[nH]c2C(=O)O)cc1`: the T/C runs as follows: under setting [11], 94 % of control; under setting [8], 105 % of control; under setting [10], 94 % of control.
Turning to `O=S(=O)([O-])NC1CCCCC1.O=S(=O)([O-])NC1CCCCC1.[Hg+2].[Hg+2].[Hg+2].[O-2].[O-2]`, the T/C reads like this: (dose: 0.12 mg/kg/injection, schedule: Q01DX009 (ip), vehicle: saline) 98 % of control; (dose: 0.25 mg/kg/injection, schedule: Q01DX009 (ip), vehicle: saline) 105 % of control; (dose: 0.5 mg/kg/injection, schedule: Q01DX009 (ip), vehicle: saline) 98 % of control; (dose: 1.0 mg/kg/injection, schedule: Q01DX009 (ip), vehicle: saline) 90 % of control.
With `C[C@H]1C[C@@H]2[C@H]([C@@H](O)C[C@@]3(C)[C@H]2CC[C@]3(O)C(=O)CO)[C@@]2(C)C=CC(=O)C=C12`, the T/C by setting is: (dose: 6.25 mg/kg/injection, schedule: Q01DX009 (ip), vehicle: Klucel (hydroxypropylcellulose) (HPC)) 115 % of control; under setting [12], 115 % of control; under setting [13], 117 % of control; under setting [8], 116 % of control; under setting [10], 112 % of control.

The values are drawn from PubChem BioAssay AID192 (DTP/NCI, 2004).
